Test system: dextran sodium sulfate (DSS)-induced IBD
Assay: Acute prophylactic model of DSS-induced IBD
Type: in vivo, mouse
Description: Acute and chronic models of dextran sodium sulfate (DSS)-induced IBD in mice were used to explore efficacy of GSNORi against this disease. Acute and chronic DSS-induced IBD are widely used and well characterized models that induce pathological changes in the colon similar to those observed in the human disease. In these models and in human disease, epithelial cells within the crypts of the colon are disrupted, leading to dysfunction of the epithelial barrier and the ensuing tissue inflammation, edema, and ulceration. GSNORi therapy may benefit IBD by restoring s-nitrosoglutathione (GSNO) levels, and thus prevent or reverse the epithelial barrier dysfunction. Experimental IBD was induced by administration of DSS in the drinking water of male C57B1/6 mice (N=8 to 10 mice per group) for 6 consecutive days. GSNORi was dosed orally at doses of 0.1 to 10 mg/kg/day for 10 days starting two days prior to and continuing two days post DSS exposure. Two days post DSS exposure, the effect of GSNORi was assessed in a blinded fashion via endoscopy and histopathology using a five point scale ranging from a score=0 (normal tissue) through a score=4 (ulcerative tissue damage and marked pathological changes). Levels of circulating cytokines involved in inflammatory pathways were also assessed. The effect of GSNORi was compared to vehicle treated controls. The corticosteroid, prednisolone, was used as the positive control in this study and was administered daily at 3 mg/kg/day via oral dosing. Naïve mice (N=5) were also assessed as a normal tissue control.

[1] = acute model, oral 1 mg/kg/day for 10 consecutive days, prophylactic dosing regimen

Question: How did the “colon injury (in words)” value (acute DSS-induced IBD) turn out when `O=C(O)c1ccc(-c2ccc3cc(O)ccc3c2)c(Cl)c1` [Example 1, 3-chloro-4-(6-hydroxynaphthalen-2-yl)benzoic acid] was run?
Answer: attenuated colon injury

Question: What about the “decrease of percent of mice presenting with severe colon injury scores via endoscopy, of vehicle control” value [1] of the same molecule?
Answer: 17%

Question: What about the “decrease of percent of mice presenting with severe colon injury scores via histopathology, of vehicle control” value [1] of the same molecule?
Answer: 21%

Question: And the “decrease of percent of mice presenting with severe endoscopy scores, of vehicle control” value (acute model, oral 10 mg/kg/day for 10 days, p<0.05)?
Answer: 72%

Reference: patent US9249132B2, “Substituted bicyclic aromatic compounds as S-nitrosoglutathione reductase inhibitors” (Nivalis Therapeutics, Inc., priority 2010, dated 2016)
